# Experimental data taken from US20200341000A1, “METHOD OF SCREENING COMPOUNDS FOR TREATING CNS DISORDERS” (SAGE THERAPEUTICS, INC., priority 2017, published 2020).
# “Also recorded” adds a separate entry of the source. Like-named read-outs stand apart in the source and are kept apart here.
# What was measured:
# [1] = test system: tonic current in dentate gyms granule cells (DGGCs); test: Acute (allosteric) modulation of tonic current in DGGCs of hippocampal slices; type: cell-based, mice; conditions: 100 nM, 10 min acute exposure, then 100 μM picrotoxin; mean±SEM
# Experimental: Brain slices were prepared from 3- to 5-week-old male C57 mice. Mice were anesthetized with isoflurane, decapitated, and brains were rapidly removed and submerged in ice-cold cutting solution containing (mM): 126 NaCl, 2.5 KCl, 0.5 CaCl2, 2 MgCl2, 26 NaHCO3, 1.25 NaH2PO4, 10 glucose, 1.5 sodium pyruvate, and 3 kynurenic acid. Coronal 310 μm thick slices were cut with the vibratome VT1000S (Leica Microsystems, St Louis, Mo., USA). The slices were then transferred into incubation chamber filled with prewarmed (31-32° C.) oxygenated artificial cerebro-spinal fluid (ACSF) of the following composition (in mM): 126 NaCl, 2.5 KCl, 2 CaCl2, 2 MgCl2, 26 NaHCO3, 1.25 NaH2PO4, 10 glucose, 1.5 sodium pyruvate, 1 glutamine, 3 kynurenic acid and 0.005 GABA bubbled with 95% O2-5% CO2. Slices were allowed to recover at 32° C. for at least 1 hr before recording. Exogenous GABA was added in an attempt to standardize ambient GABA in the slice and provide an agonist source for newly inserted extrasynaptic GABAARs. […]
# Whole-cell currents were recorded from the dentate gyms granule cells (DGGCs) in 310-μm-thick coronal hippocampal slices. […] A 5 min period for stabilization after obtaining the whole-cell recording conformation (holding potential of −60 mV) was allowed before currents were recorded using an Axopatch 200B amplifier (Molecular Devices), low-pass filtered at 2 kHz, digitized at 20 kHz (Digidata 1440A; Molecular Devices), and stored for offline analysis.
# For tonic current measurements, an all-points histogram was plotted for a 10 s period before and during 100 μM picrotoxin application, once the response reached a plateau level. […] Series resistance and whole-cell capacitance were continually monitored and compensated throughout the course of the experiment. […] Spontaneous inhibitory post-synaptic currents (sIPSCs) were analyzed using the mini-analysis software (version 5.6.4; Synaptosoft, Decatur, Ga.). […] Only recordings with a minimum of 200 events fitting these criteria were analyzed. sIPSCs amplitude, and frequency from each experimental condition was pooled and expressed as mean±SEM. […]
# [2] = test system: tonic current in dentate gyms granule cells (DGGCs); test: Sustained (metabotropic) enhancement of tonic current in DGGCs after 15 min exposure and washout; type: cell-based, mice; conditions: for tonic current after exposure and washout: 1 μM, vehicle 43.9±5.7 pA; for change of tonic current after exposure to different concentrations: maximal effects at 1 μM; for tonic current versus vehicle with PKC inhibitor GFX: GFX 50 μM 15 min, then co-exposure with compound 15 min, washout
# Experimental: Brain slices were prepared from 3- to 5-week-old male C57 mice. Mice were anesthetized with isoflurane, decapitated, and brains were rapidly removed and submerged in ice-cold cutting solution containing (mM): 126 NaCl, 2.5 KCl, 0.5 CaCl2, 2 MgCl2, 26 NaHCO3, 1.25 NaH2PO4, 10 glucose, 1.5 sodium pyruvate, and 3 kynurenic acid. Coronal 310 μm thick slices were cut with the vibratome VT1000S (Leica Microsystems, St Louis, Mo., USA). The slices were then transferred into incubation chamber filled with prewarmed (31-32° C.) oxygenated artificial cerebro-spinal fluid (ACSF) of the following composition (in mM): 126 NaCl, 2.5 KCl, 2 CaCl2, 2 MgCl2, 26 NaHCO3, 1.25 NaH2PO4, 10 glucose, 1.5 sodium pyruvate, 1 glutamine, 3 kynurenic acid and 0.005 GABA bubbled with 95% O2-5% CO2. Slices were allowed to recover at 32° C. for at least 1 hr before recording. Exogenous GABA was added in an attempt to standardize ambient GABA in the slice and provide an agonist source for newly inserted extrasynaptic GABAARs.
# After recovery, a single slice was transferred to a submerged, dual perfusion recording chamber (Warner Instruments, Hamden, Conn., USA) on the stage of an upright microscope (Nikon FN-1) with a 40× water immersion objective equipped with DIC/IR optics. Slices were maintained at 32° C. and gravity-superfused with ACSF solution throughout experimentation and perfused at rate of 2 ml/min with oxygenated (O2/CO2 95/5%) ACSF.
# Whole-cell currents were recorded from the dentate gyms granule cells (DGGCs) in 310-μm-thick coronal hippocampal slices. Patch pipettes (5-7MΩ) were pulled from borosilicate glass (World Precision Instruments) and filled with intracellular solution of the composition (in mM) as follows: 140 CsCl, 1 MgCl2, 0.1 EGTA, 10 HEPES, 2 Mg-ATP, 4 NaCl and 0.3 Na-GTP (pH=7.2 with CsOH). A 5 min period for stabilization after obtaining the whole-cell recording conformation (holding potential of −60 mV) was allowed before currents were recorded using an Axopatch 200B amplifier (Molecular Devices), low-pass filtered at 2 kHz, digitized at 20 kHz (Digidata 1440A; Molecular Devices), and stored for offline analysis.
# For tonic current measurements, an all-points histogram was plotted for a 10 s period before and during 100 μM picrotoxin application, once the response reached a plateau level. Recordings with unstable baselines were discarded. Fitting the histogram with a Gaussian distribution gave the mean baseline current amplitude and the difference between the amplitudes before and during picrotoxin was considered to be the tonic current. The negative section of the all-points histogram which corresponds to the inward IPSCs was not fitted with a Gaussian distribution (Kretschmannova et al., 2013; Nusser and Mody, 2002). Series resistance and whole-cell capacitance were continually monitored and compensated throughout the course of the experiment. Recordings were eliminated from data analysis if series resistance increased by >20%. Spontaneous inhibitory post-synaptic currents (sIPSCs) were analyzed using the mini-analysis software (version 5.6.4; Synaptosoft, Decatur, Ga.). Minimum threshold detection was set to 3 times the value of baseline noise signal. To assess sIPSC kinetics, the recording trace was visually inspected and only events with a stable baseline, sharp rising phase, and single peak were used to negate artifacts due to event summation. Only recordings with a minimum of 200 events fitting these criteria were analyzed. sIPSCs amplitude, and frequency from each experimental condition was pooled and expressed as mean±SEM. To measure sIPSC decay, 100 consecutive events were averaged and the decay was fitted to a double exponential and the weighted decay constant (tw) was determined. Statistical analysis was performed by using Student t-test (paired and unpaired where appropriate), where p<0.05 is considered significant.
# [3] = molecular target: T1, α4β3δ GABAA receptors (Homo sapiens, UniProt O14764+P28472+P48169); test: Whole-cell patch clamp, potentiation of GABA EC20 currents at recombinant extrasynaptic-type receptors (CHO cells); type: cell-based
# T1 construct: expressed in transfected cells; host or cells: CHO cells (transient transfection, Lipofectamine)
# T1 sequence (P48169 36-554): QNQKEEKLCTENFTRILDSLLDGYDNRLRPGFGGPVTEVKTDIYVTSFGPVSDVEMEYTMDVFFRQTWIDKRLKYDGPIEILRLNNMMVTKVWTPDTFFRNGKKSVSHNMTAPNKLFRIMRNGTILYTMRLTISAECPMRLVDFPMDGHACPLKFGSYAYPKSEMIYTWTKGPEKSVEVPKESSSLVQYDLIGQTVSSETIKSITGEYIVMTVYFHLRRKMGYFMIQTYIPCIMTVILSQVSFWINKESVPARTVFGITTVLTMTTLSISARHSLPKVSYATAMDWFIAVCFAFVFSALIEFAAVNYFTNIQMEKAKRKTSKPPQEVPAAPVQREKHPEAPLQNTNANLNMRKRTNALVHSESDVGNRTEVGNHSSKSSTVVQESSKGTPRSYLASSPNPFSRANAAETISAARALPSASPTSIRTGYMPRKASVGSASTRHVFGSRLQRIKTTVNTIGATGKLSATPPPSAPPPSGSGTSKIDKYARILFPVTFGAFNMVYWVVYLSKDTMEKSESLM
# T1 sequence (P28472 26-473): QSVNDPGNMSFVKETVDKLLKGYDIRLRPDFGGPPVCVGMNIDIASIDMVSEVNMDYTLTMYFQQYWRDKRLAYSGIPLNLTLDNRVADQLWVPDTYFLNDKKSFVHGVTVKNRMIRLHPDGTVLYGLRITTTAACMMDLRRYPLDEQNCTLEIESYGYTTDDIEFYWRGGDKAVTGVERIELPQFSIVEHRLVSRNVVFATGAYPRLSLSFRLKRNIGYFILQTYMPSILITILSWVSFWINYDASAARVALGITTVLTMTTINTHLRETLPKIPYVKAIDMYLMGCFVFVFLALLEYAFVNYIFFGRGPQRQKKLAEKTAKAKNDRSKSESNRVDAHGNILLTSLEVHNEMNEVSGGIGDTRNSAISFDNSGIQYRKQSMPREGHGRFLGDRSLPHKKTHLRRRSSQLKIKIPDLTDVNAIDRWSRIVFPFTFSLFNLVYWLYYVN
# T1 sequence (O14764 25-452): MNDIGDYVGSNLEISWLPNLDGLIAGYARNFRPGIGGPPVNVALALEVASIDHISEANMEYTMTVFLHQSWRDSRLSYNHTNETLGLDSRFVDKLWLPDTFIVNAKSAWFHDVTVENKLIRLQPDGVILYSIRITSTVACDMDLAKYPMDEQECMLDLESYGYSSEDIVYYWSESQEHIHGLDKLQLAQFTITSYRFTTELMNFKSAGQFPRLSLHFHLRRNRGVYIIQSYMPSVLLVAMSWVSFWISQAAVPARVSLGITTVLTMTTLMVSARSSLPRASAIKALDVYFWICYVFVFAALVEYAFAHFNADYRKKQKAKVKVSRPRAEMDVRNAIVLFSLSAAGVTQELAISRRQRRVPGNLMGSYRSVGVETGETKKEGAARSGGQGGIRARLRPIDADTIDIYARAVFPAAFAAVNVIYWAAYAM
# Experimental: Cellular electrophysiology was used to measure the pharmacological properties of ALLO, ganaxolone and SGE-516 in heterologous cell systems. Compounds were tested for their ability to affect GABA mediated currents at a submaximal agonist dose (GABA EC20=2 μM).
# LTK cells were stably transfected with the α1β2γ2 subunits of the GABA receptor and CHO cells are transiently transfected with the α4β3γ subunits via the Lipofecatamine method. Cells were passaged at a confluence of about 50-80% and then seeded onto 35 mm sterile culture dishes containing 2 ml culture complete medium without antibiotics or antimycotics. Cells were cultivated at a density that enabled the recording of single cells without visible connections to other cells.
# Whole-cell currents were measured with HEKA EPC-10 amplifiers using PatchMaster software. Bath solution for all experiments contained (in mM): NaCl 137, KCl 4, CaCl2 1.8, MgCl2 1, HEPES 10, D-Glucose 10, pH 7.4 with NaOH. Intracellular (pipette) solution contained (in mM): KCl 130, MgCl2 1, Mg-ATP 5, HEPES 10, EGTA 5, pH 7.2 with KOH. During experiments, cells and solutions were maintained at room temperature (19° C.-30° C.). For manual patchclamp recordings, cell culture dishes were placed on the dish holder of the microscope and continuously perfused (1 ml/min) with bath solution. After formation of a Gigaohm seal between the patch electrode and the cell (pipette resistance range: 2.5 MΩ-6.0MΩ; seal resistance range: >1 GΩ) the cell membrane across the pipette tip was ruptured to assure electrical access to the cell interior (whole-cell patch configuration).
# Cells were voltage-clamped at a holding potential of −80 mV. GABAA receptors were activated by 2 μM GABA and compounds were sequentially applied at increasing concentrations for 30 s prior to a 2 s application of GABA. GABA and compounds were applied to cells via the Dynaflow perfusion system (Cellectricon, Sweden). Test compounds were dissolved in DMSO to form 10 mM stock solution and serially diluted to 0.01, 0.1, 1, and 10 μM in bath solution. […] All concentrations of test compound were tested on each cell. The relative percentage potentiation was defined as the peak amplitude in response to GABA EC20 in the presence of test compound divided by the peak amplitude in response to GABA EC20 alone, multiplied by 100.
# ALLO and ganaxolone are known PAMs of both synaptic and extrasynaptic GABAAR-mediated currents. […] The α1β2γ2 or α4β3δ subunit combinations were chosen as representatives of typical synaptic and extrasynaptic GABAA receptors respectively.
# [4] = 15 min incubation, 30-60 min wash
# [5] = relative percentage potentiation of GABA EC20 peak current, n = 3
SMILES,tonic current during acute exposure [1] [pA],"increase in tonic current in the absence or presence of strychnine ([2]; 100 nM ALLO 15 min, strychnine 100 nM)","change of tonic current versus vehicle ([2]; 100 nM, 15 min incubation, 30-60 min wash)","tonic current after exposure and washout [2, 4] [pA]","change of tonic current after exposure to different concentrations [2, 4]",tonic current versus vehicle with PKC inhibitor GFX [2],EC50 [3] [µM],"Emax ([3]; CHO, relative percentage potentiation of GABA EC20 peak current, n = 3, read-out: Emax ± S.E.M., α4β3δ) [%]","Emax ± S.E.M., α4β3δ [3, 5] [%]","tonic current in DGGCs after incubation and extensive washout ([2]; 100 nM, WT slices)","pEC50 ± S.E.M., α4β3δ ([3]; GABA EC20 (2 μM), n = 3)","EC50 ([3]; GABA EC20 (2 μM), n = 3, read-out: EC50, potentiation of GABA current, α4β3δ) [µM]"
"CC(=O)[C@H]1CC[C@H]2[C@@H]3CC[C@H]4C[C@H](O)CC[C@]4(C)[C@H]3CC[C@]12C [ALLO, Allopregnanolone]",58.3±13.0,no difference,significant increase,95.8±10.8,concentration-dependent increase; also recorded: significantly enhanced,no significant difference; also recorded: No change,0.057,426,426 ± 42,–,–,–
C[C@@]1(O)CC[C@H]2[C@H](CC[C@@H]3[C@@H]2CC[C@]2(C)[C@@H](C(=O)Cn4nccn4)CC[C@@H]32)C1 [SGE-516],49.2±8.9,–,–,123.0±22.2,concentration-dependent increase; also recorded: significantly enhanced,no significant difference; also recorded: No change,–,–,505 ± 19,significant increased,6.7 ± 0.1,0.193
